The target of this experiment is human FXa (Homo sapiens, UniProt P00742). Nature of the experiment: Determination of inhibitory activity of activated blood coagulation factor X (FXa). It counts as biochemical. Conditions: substrate S-2765, Tris buffer pH 8.4, incubation 30 minutes, absorbance A405; read-out: FXa inhibitory activity, 50% inhibitory activity (IC50). The protocol:
A test substance was dissolved in water or water containing organic solvents (DMSO, ethanol or methanol) at a suitable concentration to provide a specimen. To 70 μl each of the resulting specimens serially diluted with water, were added 90 μl of a 100 mM Tris buffer (pH 8.4), 20 μl of a 50 mM Tris buffer (pH 8.4) containing 50 mU/ml human FXa and 2 mM of a substrate (S-2765 manufactured by Daiichi Pure Chemicals Co., Ltd.). Incubation was carried out for 30 minutes. To the incubated mixture, was then added 50 μl of a 50% acetic acid. The absorbance (A405) was determined. A mixture prepared by adding the Tris buffer instead of the FXa was used as a blank, and a mixture containing water instead of the specimen was used as a control. The 50% inhibitory activity (IC50) was determined as the indication of FXa inhibitory activity.

Sequence of human FXa (P00742 235-488 limits assumed): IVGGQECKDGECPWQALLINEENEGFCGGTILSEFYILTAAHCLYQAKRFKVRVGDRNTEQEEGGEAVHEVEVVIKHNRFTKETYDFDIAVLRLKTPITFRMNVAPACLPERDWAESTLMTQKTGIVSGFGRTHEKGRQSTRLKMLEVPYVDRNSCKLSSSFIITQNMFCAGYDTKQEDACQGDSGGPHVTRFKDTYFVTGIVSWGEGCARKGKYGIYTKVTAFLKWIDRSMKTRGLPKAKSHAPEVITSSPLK
Sequence of human FXa (P00742 41-179 partner limits assumed): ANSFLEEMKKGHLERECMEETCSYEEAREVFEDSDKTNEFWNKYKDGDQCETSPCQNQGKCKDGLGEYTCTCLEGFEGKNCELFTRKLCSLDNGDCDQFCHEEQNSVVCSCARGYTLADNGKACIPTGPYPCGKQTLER

As to `CC(C)N1CCC(COCc2cc(C(=O)O)cc(-c3cccc(C(=N)N)c3)c2)CC1`, the IC50 fell in the range of 0.1 to 1 µM.
The result for `COC(=O)c1cc(COCC2CCN(C(C)C)CC2)cc(-c2cccc(C(=N)N)c2)c1` [Reference Example 4, methyl 3-(3-amidinophenyl)-5-[(N-isopropyl-4-piperidinyl)methoxymethyl]-5-benzoate] reads 0.1 to 1 µM.
For the molecule `COC(=O)c1cc(COCC2CCN(C(C)=O)CC2)cc(-c2cccc(C(=N)N)c2)c1` [Reference Example 5, methyl 3-(3-amidinophenyl)-5-[(N-acetylpiperidin-4-yl)methoxymethyl]-5-benzoate], the IC50 lay in the range of 0.1 to 1 µM.
`COC(=O)c1cc(COCC2CCNCC2)cc(-c2cccc(C(=N)N)c2)c1` [Reference Example 3, methyl 3-(3-amidinophenyl)-5-[(4-piperidinyl)methoxymethyl]-5-benzoate]: the IC50 was 0.1 to 1 µM.
As to `COC(=O)c1cc(CNCC2CCN(C(C)=N)CC2)cc(-c2cccc(C(=N)N)c2)c1` [Reference Example 6, methyl 3-(3-amidinophenyl)-5-[(((N-acetimidoylpiperidin-4-yl)methyl)amino)methyl]benzoate], the IC50 was in the range of 0.01 to 0.1 µM.
As for `COC(=O)c1cc(COCC2CCN(C(C)=N)CC2)cc(-c2cccc(C(=N)N)c2)c1` [Reference Example 7, methyl 3-(3-amidinophenyl)-5-[(1-acetimidoyl-4-piperidinyl)methoxymethyl]benzoate], the figure is 0.01 to 0.1 µM.

For the origin of these results see patent publication US6538137B1 (Teijin Limited, priority 1999, dated 2003).
